Assays:
[1] = system: lipid protein adducts; experiment: Hemin-induced lipid protein adduct formation (Bt-AA, streptavidin-HRP Western blot) in primary neurons; type: cell-based, mouse
Description: Electrophilic attack by ALOX5 products could alter cellular protein-mediated signaling to trigger cell death. Arachidonic acid (AA) tagged with biotin (Bt-AA) was used to monitor the formation of covalent protein adducts. To test whether hemin was sufficient to catalyze the formation of protein-reactive lipid species, primary neurons were treated with hemin at concentrations of 5 μM-50 μM for 4 h. Lipid protein adducts were detected by Western blots probed with Streptavidin-HRP. Bt-AA incorporation into protein increased with increasing concentrations of hemin, and significant lipid protein adducts were detected at 50 μM hemin. […] The blot is representative from replicates of three experiments. The arrow indicates the decrease in lipid protein adduct formation.

[2] = system: total glutathione; experiment: Total glutathione levels in striatum of collagenase-infused ICH mice by HPLC; type: in vivo, mouse; conditions: ICH mice after NAC treatment
Text: Total glutathione levels were unchanged after NAC treatment in ICH mice. […] FIG. 29 illustrates an experimental design to study the effect of NAC on total glutathione levels in the striatum of a collagenase infusion mouse model of ICH.

[3] = system: ALOX5; experiment: ALOX5 mRNA levels in hemin-treated primary cortical neurons (RT-PCR); type: cell-based, mouse; conditions: NAC 1 mM
Description: Quantitative real-time PCR: Total RNA was prepared using a NucleoSpin® RNA II kit. Duplex real-time PCR reactions were performed with gene expression assays using 6-carboxyfluorescein-labeled probes for ALOX5 (Mm 01182747_m1) and ALOX5AP (Mm 01218551_m1). Expression levels were normalized to β-actin gene expression levels, which were determined with a VIC™-labeled probe. All experiments were performed using a real-time PCR system.
The abilities of hemin and NAC to induce increases in ALOX5 and ALOX AP mRNA levels were examined. […] Consistent with the protein data (FIG. 17), hemin induced increases in ALOX AP and ALOX5 mRNA levels in a time-dependent manner.

[4] = system: primary cortical neurons; experiment: cells; type: cell-based, mouse; conditions: Mus musculus, Primary cortical neuron; 100 μM hemin, primary cortical neurons; read-out: EC50 for reduction of hemin-induced toxicity/ferroptosis
Description: Primary cortical neuronal cultures: Primary cortical neurons were collected from embryonic (E15) CD1 mice. The cortices of the mice were dissected, homogenized, and plated in minimum essential medium containing 10% fetal bovine serum (FBS), 5% horse serum, and 1% penicillin/streptomycin in 96-well plates, 6-well plates, or 10-cm dishes. The neurons were maintained at 37° C. with 5% CO2. All experiments were conducted 24 hours after plating.
In vitro ICH model: Ferroptosis is a type of programmed cell death that is dependent on iron, and is characterized by the accumulation of lipid peroxides. Ferroptosis is genetically and biochemically distinct from other forms of regulated cell death such as apoptosis. Ferroptosis is initiated by the failure of the glutathione-dependent antioxidant defenses, resulting in unchecked lipid peroxidation and eventual cell death.
Cell death was induced in primary cortical neurons by treating the neurons with hemin, a blood breakdown product. For the neuroprotection studies, cells were treated with hemin (100 μM) in the presence of NAC (0.1 mM to 1mM), 6-hydroxy-2,5,7,8-tetramethylchroman-2-carboxylic acid (trolox; 0.1 μM to 100 μM), β-carotene (0.1 μM to 100 μM) α-lipoic acid (0.01 mM to 2 mM), glutathione ethyl ester (1 mM to 10 mM), oxothiazolidine-4-carboxylate (1 mM to 10 mM), cystamine (0.1 μM to 10 μM), or nordihydroguaiaretic acid (0.1 μM to 10 μM). Cell viability was analyzed 24 h after treatment. The cells were rinsed with warm phosphate-buffered saline (PBS) and assessed using an MTT assay. The fidelity of the MTT assays in measuring viability was verified by calcein-AM/ethidium homodimer-1 staining (Live/Dead assay).
The ability of NAC to protect cells was investigated in a hemin model of hemorrhagic stroke. The in vitro model of ICH involved the administration of hemin, a breakdown product of hemoglobin from lysed blood, to trigger cell death. Treatment of primary cortical neurons with 100 μM hemin induced widespread cell death through a ferroptotic mechanism, which was quantified with MTT and qualitatively observed using live/dead staining. Living cells were labeled with calcein-AM, and dead cells were labeled with ethidium homodimer. […] Scale bars: 100 μm.
A systematic pharmacological screening of oxidized lipid species inhibitors in the context of hemin-induced cell death was performed in primary cortical neurons. Primary cortical neurons were co-treated with hemin and a non-specific or enzymatic lipid peroxidation inhibitor. The MTT assays were performed 18 h following the co-treatment.

[5] = target: T1, recombinant ALOX5 (Homo sapiens, UniProt P09917); experiment: Lipoxygenase UV/Vis-based IC50 assay with recombinant ALOX5; type: biochemical; conditions: test tube assay
T1 sequence (P09917 1-674): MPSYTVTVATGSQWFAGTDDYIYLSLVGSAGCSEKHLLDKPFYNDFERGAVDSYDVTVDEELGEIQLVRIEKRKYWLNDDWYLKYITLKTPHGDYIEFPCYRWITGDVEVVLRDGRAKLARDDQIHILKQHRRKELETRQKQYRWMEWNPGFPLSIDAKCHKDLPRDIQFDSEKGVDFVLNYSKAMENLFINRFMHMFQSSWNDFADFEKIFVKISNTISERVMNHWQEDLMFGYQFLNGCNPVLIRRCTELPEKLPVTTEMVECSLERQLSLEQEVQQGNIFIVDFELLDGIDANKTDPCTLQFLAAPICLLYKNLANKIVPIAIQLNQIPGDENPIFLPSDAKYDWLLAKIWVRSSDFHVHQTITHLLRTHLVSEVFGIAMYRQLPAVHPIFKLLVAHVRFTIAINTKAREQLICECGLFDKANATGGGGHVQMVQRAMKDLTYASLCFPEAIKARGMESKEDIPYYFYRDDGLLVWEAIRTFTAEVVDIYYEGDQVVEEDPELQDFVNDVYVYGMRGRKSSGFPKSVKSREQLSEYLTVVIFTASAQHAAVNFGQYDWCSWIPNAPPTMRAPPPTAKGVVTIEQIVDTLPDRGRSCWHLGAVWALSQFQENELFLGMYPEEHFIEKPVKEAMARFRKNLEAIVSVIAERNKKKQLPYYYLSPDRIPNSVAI
Description: Lipoxygenase UV/Vis-based IC50 assay: Inhibition potencies were determined by following the formation of conjugated diene products, 5-HpETE [ε=27000 M^−1 cm^−1 for AA turnover) at 234 nm using a UV/Vis spectrophotometer. All reaction mixtures were 2 mL in volume, and the reaction mixtures were constantly stirred using a magnetic stir bar at room temperature (23° C.). All reactions were carried out in a buffer containing 200 μM ATP and 10 μM AA. The AA concentration of a sample was verified by full turnover with soybean-1 lipoxygenase and quantifying the product concentration. Inhibitors were stored in DMSO at −20° C. Enzymatic reactions were initiated by adding approximately 100 nM-300 nM ammonium sulfate-precipitated wildtype enzyme. IC50 values were obtained by determining the enzymatic rate at a minimum of five inhibitor concentrations, plotting the enzymatic rate against inhibitor concentration, and performing a hyperbolic saturation curve fit. Inhibitor concentrations were assayed in duplicate or triplicate.
Significance was determined by two-way ANOVA and Bonferroni's post hoc test.

Q: Which results are given for `CC(=O)N[C@@H](CS)C(=O)O` [NAC, N-acetylcysteine]?
A: AA-protein adduct formation ([1]; non-protective doses: NAC 0.1 mM, vitamin E 1 μM, zileuton 1 μM): did not decrease AA-protein adduct formation; Lipid protein adduct formation ([1]; protective doses: NAC 1 mM, vitamin E 10 μM, zileuton 10 μM): decreased lipid protein adduct formation; Total glutathione levels in striatum [2]: unchanged; Hemin-induced ALOX5 expression [3]: blocked the expression of ALOX5; EC50 [4]: 500 µM; Inhibition of ALOX5 activity [5]: did not inhibit ALOX5 activity

From patent publication US11963939B2, “Use of N-acetylcysteine to treat central nervous system disorders” (Neuronasal, Inc., priority 2017, dated 2024)
